Results taken from patent US20110311601A1, “ANTIMICROBIAL MEDICAL DEVICES” (priority 2010, published 2011).
Where no end group is shown, it is not given here.

Legend:
Assay in all cases: micro-dilution assay (MBC, LD90)
Assay type in all cases: cell-based
[1] = tested on: Acinetobacter Genosp. 11 ATCC 11171
Procedure: (§1) The anti-bacterial activity of hβD2 was tested by a micro-dilution assay. Bacteria and fungi were streaked from a glycerol stock onto a Brain Heart Infusion (BHI) agar plate (3.7% w/v BHI Bouillon, 1.5% w/v Agar), grown overnight at 37° C. and 30° C., respectively and subsequently used to inoculate 40 ml of 3.7% w/v BHI Bouillon without any antibiotics in 100 ml flasks. Fresh cells were harvested by centrifugation at 16000 rpm for 10 min and washed twice with 10 mM sodium phosphate buffer, pH 7.2. The optical density was adjusted to 10^4 cells/ml. For anti-bacterial testing hβD2 was incubated in one well of a microtiter plate containing 100 μl of the bacterial suspension. Therefore, ten microlitres of hβD2 solution with a range of final concentrations tested from 0.0125 up to and including 100 mg/l was added to the bacterial suspension and incubated at 37° C. and 30° C., respectively for 2 h before colony forming units were determined. Colony forming units (CFU) were determined after plating 100 μl of a 1:100 dilution of the bacterial suspension on petri dishes with BHI medium and incubating them overnight at 37° C. For every group of the hβD2 added samples and the controls, 5 independent anti-bacterial assays were performed. A control (NC) of bacterial growth was examined for every independent assay. The number of CFU on the control (consisting of a single petri dish) was set to 0% bactericidal activity. The reduction in the CFU resulting from the anti-bacterial activity of hβD2 was related to the absolute CFU of the control within every independent assay. This value, given as a percentage of the bacterial “killing” activity, was used to describe the antibacterial activity. This kind of normalisation of the antibacterial data was performed for every experimental group.
(§2) The antibacterial activity of hβD2 were given either as minimum bactericidal concentration (MBC), i.e., the minimum concentration of hβD2 in μg/ml which is required to kill 99.9% of the bacteria or fungi or as lethal dose (LD90), i.e., the concentration of hβD2 in μg/ml which is lethal for 90% of bacteria or fungi.

[2] = tested on: Actinobacillus actinommycetemcomitans NCTC 10979
Procedure: as §1, §2

[3] = tested on: Aeeromonas hydrophila ATCC 7966
Procedure: as §1, §2

[4] = tested on: Candida albicans ATCC 24433
Procedure: as §1, §2

[5] = tested on: Citrobacter freundii UR 1776/03 (wild-type)
Procedure: as §1, §2

[6] = tested on: E. coli (ESBI 4) Va 10866/02 (wild-type)
Procedure: as §1, §2

[7] = tested on: E. coli (ESBL 1) UR 2884/99 (wild-type)
Procedure: as §1, §2

[8] = tested on: Enterobacter cloacae ATCC 13047
Procedure: as §1, §2

[9] = tested on: Enterobacter cloacae Va 11263/03 (wild-type)
Procedure: as §1, §2

[10] = tested on: Enterococcus faecium (VRE) Ulm 68 (wild-type)
Procedure: as §1, §2

[11] = tested on: Enterococcus faecium (VRE) W 356 (wild-type)
Procedure: as §1, §2

[12] = tested on: Helicobacter pylori ATCC 49503
Procedure: as §1, §2

[13] = tested on: Klebsiella pneumoniae (ESBL) CF 31 (wild-type)
Procedure: as §1, §2

[14] = tested on: Klebsiella pneumoniae ATCC 13883
Procedure: as §1, §2

[15] = tested on: Klebsiella pneumoniae ATCC 700603 ESBL
Procedure: as §1, §2

[16] = tested on: Proteus mirabilis ATCC 9240
Procedure: as §1, §2

[17] = tested on: Proteus mirabilis UR 1536/03 (wild-type)
Procedure: as §1, §2

[18] = tested on: Pseudomonas aeruginosa ATCC 10145
Procedure: as §1, §2

[19] = tested on: Pseudomonas aeruginosa ATCC 11446
Procedure: as §1, §2

[20] = tested on: Pseudomonas aeruginosa CF 645 (mukoid)(wild-type)
Procedure: as §1, §2

[21] = tested on: Pseudomonas putida BK 4912
Procedure: as §1, §2

[22] = tested on: Saccharomyces cerevisiae ATCC 9763
Procedure: as §1, §2

[23] = tested on: Serratia marcescens Mero 060/148 (wild-type)
Procedure: as §1, §2

[24] = tested on: Staphylococcus aureus (MRSA 344) (wild-type)
Procedure: as §1, §2

[25] = tested on: Streptococcus mutans ATCC 35668
Procedure: as §1, §2

[26] = tested on: Streptococcus pneumoniae ATCC 33400
Procedure: as §1, §2

human β-defensin-2 (GIGDPVTCLKSGAICHPVFCPRRYKQIGTCGLPGTKCCKKP; ends and bridges not checked; cysteine pairing not given here) [hβD2, recombinant hβD2]
LD 90 = μg/ml 90% killing [1]: 0.39 µg/mL
MBC = μg/ml 99.9% killing [1]: 3.125 µg/mL
LD 90 = μg/ml 90% killing [2]: 100 µg/mL
MBC = μg/ml 99.9% killing [2]: >100 µg/mL
LD 90 = μg/ml 90% killing [3]: 100 µg/mL
MBC = μg/ml 99.9% killing [3]: >100 µg/mL
LD 90 = μg/ml 90% killing [4]: 3.125 µg/mL
MBC = μg/ml 99.9% killing [4]: 25 µg/mL
LD 90 = μg/ml 90% killing [5]: 1.56 µg/mL
MBC = μg/ml 99.9% killing [5]: 6.25 µg/mL
LD 90 = μg/ml 90% killing [6]: 3.125 µg/mL
MBC = μg/ml 99.9% killing [6]: 12.5 µg/mL
LD 90 = μg/ml 90% killing [7]: 3.125 µg/mL
MBC = μg/ml 99.9% killing [7]: 12.5 µg/mL
LD 90 = μg/ml 90% killing [8]: 25 µg/mL
MBC = μg/ml 99.9% killing [8]: 100 µg/mL
LD 90 = μg/ml 90% killing [9]: 12.5 µg/mL
MBC = μg/ml 99.9% killing [9]: 50 µg/mL
LD 90 = μg/ml 90% killing [10]: 100 µg/mL
MBC = μg/ml 99.9% killing [10]: >100 µg/mL
LD 90 = μg/ml 90% killing [11]: 50 µg/mL
MBC = μg/ml 99.9% killing [11]: 100 µg/mL
LD 90 = μg/ml 90% killing [12]: 12.5 µg/mL
MBC = μg/ml 99.9% killing [12]: 50 µg/mL
LD 90 = μg/ml 90% killing [13]: 6.25 µg/mL
MBC = μg/ml 99.9% killing [13]: 25 µg/mL
LD 90 = μg/ml 90% killing [14]: 12.5 µg/mL
MBC = μg/ml 99.9% killing [14]: 25 µg/mL
LD 90 = μg/ml 90% killing [15]: 25 µg/mL
MBC = μg/ml 99.9% killing [15]: 100 µg/mL
LD 90 = μg/ml 90% killing [16]: 100 µg/mL
MBC = μg/ml 99.9% killing [16]: >100 µg/mL
LD 90 = μg/ml 90% killing [17]: 100 µg/mL
MBC = μg/ml 99.9% killing [17]: >100 µg/mL
LD 90 = μg/ml 90% killing [18]: 6.25 µg/mL
MBC = μg/ml 99.9% killing [18]: 12.5 µg/mL
LD 90 = μg/ml 90% killing [19]: 12.5 µg/mL
MBC = μg/ml 99.9% killing [19]: 12.5 µg/mL
LD 90 = μg/ml 90% killing [20]: 25 µg/mL
MBC = μg/ml 99.9% killing [20]: 12.5 µg/mL
LD 90 = μg/ml 90% killing [21]: 6.25 µg/mL
MBC = μg/ml 99.9% killing [21]: 12.5 µg/mL
LD 90 = μg/ml 90% killing [22]: 3.125 µg/mL
MBC = μg/ml 99.9% killing [22]: 25 µg/mL
LD 90 = μg/ml 90% killing [23]: 50 µg/mL
MBC = μg/ml 99.9% killing [23]: 100 µg/mL
LD 90 = μg/ml 90% killing [24]: 100 µg/mL
MBC = μg/ml 99.9% killing [24]: 100 µg/mL
LD 90 = μg/ml 90% killing [25]: 100 µg/mL
MBC = μg/ml 99.9% killing [25]: >100 µg/mL
LD 90 = μg/ml 90% killing [26]: 25 µg/mL
MBC = μg/ml 99.9% killing [26]: 50 µg/mL
